Measurements as given in ChEMBL document CHEMBL1158797, “Alkaloids and aromatics of Cyathobasis fruticulosa (Bunge) Aellen” (2005).

Key:
[1] = tested on: Saccharomyces cerevisiae; assay: Antifungal activity against Saccharomyces cerevisiae RS321NpRAD52 by microtiter yeast assay; format: functional, organism-based
[2] = tested on: Saccharomyces cerevisiae; assay: Antifungal activity against Saccharomyces cerevisiae RS321NYCp50 by microtiter yeast assay; format: functional, organism-based
[3] = tested on: A2780; assay: Cytotoxicity against human A2780 cells; format: functional

Structure (SMILES) | Activity [1] | Activity [2] | Activity [3]
CN(C=O)CCc1ccc(O)cc1 | Dose-dependent effect | Dose-dependent effect | –
CN1CCc2c([nH]c3ccccc23)C1 | – | – | 38%
CN(C)CCc1ccc(O)cc1 [HORDENINE] | – | – | 39%
